Experimental data from ChEMBL document CHEMBL4219088, “Novel 4-aminoquinazoline derivatives induce growth inhibition, cell cycle arrest and apoptosis via PI3Kα inhibition” (Bioorg Med Chem, 2018).

How the values were obtained:
Type in all cases: functional, cell-based
[1] = tested on: HCT-116; assay: Antiproliferative activity against human HCT116 cells after 72 hrs by sulforhodamine B assay; conditions: HCT-116, 72 h
[2] = tested on: SK-HEP1; assay: Antiproliferative activity against human SKHEP1 cells after 72 hrs by sulforhodamine B assay; conditions: SK-HEP1, 72 h
[3] = tested on: MDA-MB-231; assay: Antiproliferative activity against human MDA-MB-231 cells after 72 hrs by sulforhodamine B assay; conditions: MDA-MB-231, 72 h
[4] = tested on: SNU-638; assay: Antiproliferative activity against human SNU638 cells after 72 hrs by sulforhodamine B assay; conditions: SNU-638, 72 h
[5] = tested on: A549; assay: Antiproliferative activity against human A549 cells after 72 hrs by sulforhodamine B assay; conditions: A549, 72 h
[6] = tested on: MCF7; assay: Antiproliferative activity against human MCF7 cells after 72 hrs by sulforhodamine B assay; conditions: MCF7, 72 h

Structure (SMILES)	IC50 [1]	IC50 [2]	IC50 [3]	IC50 [4]	IC50 [5]	IC50 [6]
COc1ncc(-c2ccc3ncnc(NCCN(C)C)c3c2)cc1NS(=O)(=O)c1ccc(F)cc1F	1.44 µM	4.72 µM	710 nM	620 nM	0.94 µM	1.02 µM
CCCCS(=O)(=O)Nc1cc(-c2ccc3ncnc(NCCCN(C)C)c3c2)cnc1OC	0.49 µM	0.86 µM	880 nM	1260 nM	3.52 µM	4.73 µM
COc1ncc(-c2ccc3ncnc(NCCN(C)C)c3c2)cc1NS(C)(=O)=O	13.5 µM	12.6 µM	2320 nM	410 nM	4.12 µM	14.7 µM
COc1ncc(-c2ccc3ncnc(NCc4ccncc4)c3c2)cc1NS(=O)(=O)c1ccc(F)cc1F	17.6 µM	12.4 µM	9710 nM	6210 nM	11.4 µM	22.5 µM

Continued, values first:

IC50 [1]	IC50 [2]	IC50 [3]	IC50 [4]	IC50 [5]	IC50 [6]	Structure (SMILES)
18.8 µM	13.4 µM	8960 nM	4520 nM	9.82 µM	13.5 µM	COc1ncc(-c2ccc3ncnc(NCCCN4CCOCC4)c3c2)cc1NS(=O)(=O)c1ccc(F)cc1F
2.74 µM	0.84 µM	380 nM	3960 nM	0.62 µM	28.9 µM	COc1ncc(-c2ccc3ncnc(NCCN4CCOCC4)c3c2)cc1NS(=O)(=O)c1ccc(F)cc1F
